According to patent US20130302282A1, “Inhibitors of Hepatitis C Virus” (priority 2010, published 2013):
Like-named read-outs stand apart in the source and are kept apart here.

Columns and labels:
[1] = test system: 1b_Huh-Luc/Neo-ET cell line (bicistronic genotype 1b replicon in Huh 7 cells); assay: HCV 1b replicon assay, luciferase readout; assay type: cell-based, HCV genotype 1b; conditions: Hepatitis C virus
Summary of the method: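 Huh 7 cells persistently carrying a bicistronic genotype 1b luciferase replicon, treated with compound in triplicate the day after plating and incubated 72 h. Luciferase activity measured by Bright-Glo and expressed as percent of untreated control; EC50 from four-parameter fit, repeated several times.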

HCV NS5B C316Y mutant = biological target: T1, HCV NS5B C316Y mutant (Hepatitis C virus genotype 1b, UniProt Q9WMX2, C2735Y); assay: Activity against HCV NS5B C316Y mutant; assay type: cell-based; conditions: for Inhibition of HCV N55B C316Y mutant: class symbol
T1 construct: HCV NS5B C316Y or S365A mutant as indicated; expressed in transfected cells
Method: (§1) The biological activity against HCV 1b, 1a, or 2a is indicated as being *, **, ***, or ****, which corresponds to EC50 ranges of EC50>1000 nM, 100 nM<EC50≦1000 nM, 10 nM<EC50≦100 nM, or EC50≦10 nM, respectively. The biological activity against HCV NS5B C316Y or S365A mutant is indicated as being […], which corresponds to EC50 ranges of EC50>1000 nM, 200 nM<EC50≦1000 nM, […], respectively.

HCV NS5B S365A mutant = biological target: T2, HCV NS5B S365A mutant (Hepatitis C virus genotype 1b, UniProt Q9WMX2, S2784A); assay: Activity against HCV NS5B S365A mutant; assay type: cell-based; conditions: for Inhibition of HCV NS5B S3865A mutant: class symbol
T2 construct: HCV NS5B C316Y or S365A mutant as indicated; expressed in transfected cells
Method: as §1

HCV 2a = HCV 2a replicon assay; assay type: cell-based; conditions: Hepatitis C virus; class symbol; cell marked (HCV genotype 2a replicon); read-out: Inhibition of HCV genotype 2a replicon
Method: (§2) Compounds of the invention can inhibit multiple genotypes of HCV selected but not limited to 1a, 1h, 2a, 3a, and 4a. The EC50s are measured in the corresponding replicon assays that are similar to HCV 1b replicon assay as described above.
as §1

HCV 1a = HCV 1a replicon assay; assay type: cell-based; conditions: Hepatitis C virus; class symbol; cell marked (HCV genotype 1a replicon); read-out: Inhibition of HCV genotype 1a replicon
Method: as §2, §1

[2] = Huh-7, 1b_Huh-Luc/Neo-ET cell line, read-out: EC50, half-maximal inhibition of HCV 1b replication
[3] = Huh-7, numeric value, HCV genotype 1b replicon, read-out: Inhibition of HCV genotype 1b replicon (EC50)
[4] = Huh-7, class symbol, HCV genotype 1b replicon, read-out: Inhibition of HCV genotype 1b replicon

T1 sequence (Q9WMX2 2420-3010 C2735Y): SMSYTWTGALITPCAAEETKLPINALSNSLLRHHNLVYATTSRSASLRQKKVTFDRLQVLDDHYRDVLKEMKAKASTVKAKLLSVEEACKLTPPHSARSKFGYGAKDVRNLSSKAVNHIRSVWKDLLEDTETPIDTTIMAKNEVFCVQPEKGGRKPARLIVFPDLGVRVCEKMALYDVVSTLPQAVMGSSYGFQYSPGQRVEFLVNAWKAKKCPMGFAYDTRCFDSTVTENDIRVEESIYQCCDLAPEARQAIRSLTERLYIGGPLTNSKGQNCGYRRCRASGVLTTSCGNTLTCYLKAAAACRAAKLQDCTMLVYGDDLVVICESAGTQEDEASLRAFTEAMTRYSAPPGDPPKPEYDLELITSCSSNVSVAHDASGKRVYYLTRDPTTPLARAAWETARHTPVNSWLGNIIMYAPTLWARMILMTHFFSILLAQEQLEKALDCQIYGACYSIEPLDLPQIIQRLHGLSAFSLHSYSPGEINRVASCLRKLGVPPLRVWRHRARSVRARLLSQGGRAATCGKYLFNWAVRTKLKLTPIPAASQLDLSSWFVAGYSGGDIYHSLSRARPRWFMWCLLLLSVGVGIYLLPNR
T2 sequence (Q9WMX2 2420-3010 S2784A): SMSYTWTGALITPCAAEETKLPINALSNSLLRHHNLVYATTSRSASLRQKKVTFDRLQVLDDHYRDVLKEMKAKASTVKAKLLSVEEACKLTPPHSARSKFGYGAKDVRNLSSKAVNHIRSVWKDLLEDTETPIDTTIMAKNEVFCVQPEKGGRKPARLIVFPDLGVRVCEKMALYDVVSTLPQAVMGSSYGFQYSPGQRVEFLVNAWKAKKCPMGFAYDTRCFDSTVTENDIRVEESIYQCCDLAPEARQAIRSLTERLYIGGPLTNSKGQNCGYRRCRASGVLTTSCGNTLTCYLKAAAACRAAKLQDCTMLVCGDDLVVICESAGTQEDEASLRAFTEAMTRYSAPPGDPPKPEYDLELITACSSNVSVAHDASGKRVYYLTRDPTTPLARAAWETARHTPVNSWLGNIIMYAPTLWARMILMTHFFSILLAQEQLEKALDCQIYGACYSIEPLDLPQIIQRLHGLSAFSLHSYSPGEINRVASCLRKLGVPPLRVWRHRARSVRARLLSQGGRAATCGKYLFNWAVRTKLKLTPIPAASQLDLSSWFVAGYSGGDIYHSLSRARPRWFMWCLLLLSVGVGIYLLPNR

Structure (SMILES)	EC50 [1, 2]	EC50 (HCV 2a)	EC50 (HCV 1a)	other results
CNC(=O)c1c(-c2ccc(Oc3ccc(F)cc3)cc2)oc2cc3c(cc12)[C@H](C)CCCN3S(C)(=O)=O (single isomer, unassigned) [Compound B85]	≤ 10 nM	–	–	EC50 [1, 3]: 3 nM; Inhibition of HCV N55B C316Y mutant (HCV NS5B C316Y mutant): †††; Inhibition of HCV NS5B S3865A mutant (HCV NS5B S365A mutant): †††
CNC(=O)c1c(-c2ccc(F)cc2)oc2cc3c(cc12)[C@@H]1C[C@@H]1CCN3S(C)(=O)=O (single isomer, unassigned) [Compound B132]	≤ 10 nM	–	–	EC50 [1, 4]: < 10 nM; Inhibition of HCV N55B C316Y mutant (HCV NS5B C316Y mutant): †††; Inhibition of HCV NS5B S3865A mutant (HCV NS5B S365A mutant): †††
CNC(=O)c1c(-c2ccc(Oc3ccc(F)cc3)cc2)oc2cc3c(cc12)[C@H](C)n1nncc1CN3S(C)(=O)=O (single isomer, unassigned) [Compound B163]	≤ 10 nM	–	–	EC50 [1, 4]: < 10 nM; Inhibition of HCV N55B C316Y mutant (HCV NS5B C316Y mutant): †††; Inhibition of HCV NS5B S3865A mutant (HCV NS5B S365A mutant): †††
CNC(=O)c1c(-c2ccc(F)cc2)oc2cc3c(cc12)[C@H](C)n1nncc1CN3S(C)(=O)=O (single isomer, unassigned) [Compound B169]	≤ 10 nM	–	–	EC50 [1, 4]: < 10 nM; Inhibition of HCV N55B C316Y mutant (HCV NS5B C316Y mutant): †††; Inhibition of HCV NS5B S3865A mutant (HCV NS5B S365A mutant): †††
CNC(=O)c1c(-c2ccc(Oc3ccc(F)cc3)cc2)oc2cc3c(cc12)[C@H](C)OC(C)(C)CN3S(C)(=O)=O (single isomer, unassigned) [Compound B176]	10 to 100 nM	–	–	EC50 [1, 3]: 13.6 nM; EC50 (HCV NS5B C316Y mutant): 200 to 1000 nM; EC50 (HCV NS5B S365A mutant): 200 to 1000 nM
CNC(=O)c1c(-c2ccc(F)cc2)oc2cc3c(cc12)[C@H](C)N(C)C(=O)CN3S(C)(=O)=O (single isomer, unassigned) [Compound B179]	10 to 100 nM	–	–	EC50 [1, 4]: 10 to 100 nM; Inhibition of HCV N55B C316Y mutant (HCV NS5B C316Y mutant): †††; EC50 (HCV NS5B S365A mutant): 200 to 1000 nM
CNC(=O)c1c(-c2ccc(F)cc2)oc2cc3c(cc12)[C@H](C)OC(C)(C)CN3S(C)(=O)=O (single isomer, unassigned) [Compound B184]	10 to 100 nM	–	–	EC50 [1, 3]: 16.5 nM; EC50 (HCV NS5B C316Y mutant): > 1000 nM; EC50 (HCV NS5B S365A mutant): 200 to 1000 nM
CNC(=O)c1c(-c2ccc(Oc3ccc(F)cc3)cc2)oc2cc3c(cc12)[C@H](C)OC1(CC1)CN3S(C)(=O)=O (single isomer, unassigned) [Compound B187]	≤ 10 nM	–	–	EC50 [1, 4]: < 10 nM; EC50 (HCV NS5B C316Y mutant): > 1000 nM; EC50 (HCV NS5B S365A mutant): > 1000 nM
CNC(=O)c1c(-c2ccc(F)cc2)oc2cc3c(cc12)C(C)CCN3S(C)(=O)=O (stereo not drawn) [Compound B10]	–	100 to 1000 nM	–	–
CNC(=O)c1c(-c2ccc(F)cc2)oc2cc3c(cc12)C(C)=CCN3S(C)(=O)=O [Compound B11]	–	> 1000 nM	–	–
C=CC1CCCN(S(C)(=O)=O)c2cc3oc(-c4ccc(F)cc4)c(C(=O)NC)c3cc21 (stereo not drawn) [Compound B60]	10 to 100 nM	10 to 100 nM	–	–
C=C1CCCN(S(C)(=O)=O)c2cc3oc(-c4ccc(F)cc4)c(C(=O)NC)c3cc21 [Compound B61]	–	> 1000 nM	–	–
CNC(=O)c1c(-c2ccc(F)cc2)oc2cc3c(cc12)C(C)=CCCN3S(C)(=O)=O [Compound B62]	–	> 1000 nM	–	–
CCC1CCCN(S(C)(=O)=O)c2cc3oc(-c4ccc(F)cc4)c(C(=O)NC)c3cc21 (stereo not drawn) [Compound B63]	10 to 100 nM	10 to 100 nM	–	–
CS(=O)(=O)N1CCCCc2cc3c(C(=O)NC#N)c(-c4ccc(F)cc4)oc3cc21 [Compound B64]	–	> 1000 nM	–	–
CS(=O)(=O)N1CCCCc2cc3c(-c4nnn[nH]4)c(-c4ccc(F)cc4)oc3cc21 [Compound B65]	–	> 1000 nM	–	–
CS(=O)(=O)N1CCCCc2cc3c(C4=NCCN4)c(-c4ccc(F)cc4)oc3cc21 [Compound B66]	–	> 1000 nM	–	–
C=C1CCCN(S(C)(=O)=O)c2cn3nc(-c4ccc(F)cc4)c(C(=O)NC)c3cc21 [Compound B68]	–	> 1000 nM	–	–
CNC(=O)c1c(-c2ccc(F)cc2)nn2cc3c(cc12)C(=O)CCCN3S(C)(=O)=O [Compound B69]	–	> 1000 nM	–	–
CNC(=O)c1c(-c2ccc(F)cc2)nn2cc3c(cc12)OCCCN3S(C)(=O)=O [Compound B70]	–	> 1000 nM	–	–
CNC(=O)c1c(-c2ccc(F)cc2)oc2cc3c(cc12)C(OC)CCCN3S(C)(=O)=O (stereo not drawn) [Compound B71]	10 to 100 nM	10 to 100 nM	–	–
CNC(=O)c1c(-c2ccc(F)cc2)nn2cc3c(cc12)C(C)=CCCN3S(C)(=O)=O [Compound B72]	–	> 1000 nM	–	–
CNC(=O)c1c(-c2ccc(F)cc2)nn2cc3c(cc12)C(O)CCCN3S(C)(=O)=O (stereo not drawn) [Compound B73]	–	> 1000 nM	–	–
CNC(=O)c1c(-c2ccc(F)cc2)nn2cc3c(cc12)C=CCCN3S(C)(=O)=O [Compound B74]	–	> 1000 nM	–	–

Structure (SMILES)	EC50 [1, 2]	EC50 (HCV 2a)	EC50 (HCV 1a)	other results
CNC(=O)c1c(-c2ccc(Oc3ccc(F)cc3)cc2)nn2cc3c(cc12)C(C)CCCN3S(C)(=O)=O (stereo not drawn) [Compound B76]	–	100 to 1000 nM	–	–
CNC(=O)c1c(-c2ccc(F)cc2)oc2cc3c(cc12)C(=O)C(C)CCN3S(C)(=O)=O (stereo not drawn) [Compound B77]	–	100 to 1000 nM	–	–
CNC(=O)c1c(-c2ccc(F)cc2)oc2cc3c(cc12)C(O)C(C)CCN3S(C)(=O)=O (stereo not drawn) [Compound B78]	–	100 to 1000 nM	–	–
CNC(=O)c1c(-c2ccc(F)cc2)oc2cc3c(cc12)C=C(C)CCN3S(C)(=O)=O [Compound B79]	–	> 1000 nM	–	–
CNC(=O)c1c(-c2ccc(Oc3cccc(Cl)c3)cc2)nn2cc3c(cc12)C(C)CCCN3S(C)(=O)=O (stereo not drawn) [Compound B98]	–	100 to 1000 nM	–	–
CNC(=O)c1c(-c2ccc(Oc3ccc(Cl)cc3)cc2)nn2cc3c(cc12)C(C)CCCN3S(C)(=O)=O (stereo not drawn) [Compound B99]	–	100 to 1000 nM	–	–
CNC(=O)c1c(-c2ccc(F)cc2)oc2cc3c(cc12)C(=O)C(C)(C)CCN3S(C)(=O)=O [Compound B100]	10 to 100 nM	10 to 100 nM	–	–
C=C1c2cc3c(C(=O)NC)c(-c4ccc(F)cc4)oc3cc2N(S(C)(=O)=O)CCC1(C)C [Compound B101]	10 to 100 nM	10 to 100 nM	–	–
CNC(=O)c1c(-c2ccc(F)cc2)oc2cc3c(cc12)C(=O)N(C)CCN3S(C)(=O)=O [Compound B106]	10 to 100 nM	–	10 to 100 nM	–
CNC(=O)c1c(-c2ccc(F)cc2)oc2cc3c(cc12)C(C)N(CC1CC1)CCN3S(C)(=O)=O (stereo not drawn) [Compound B108]	10 to 100 nM	–	10 to 100 nM	–
CNC(=O)c1c(-c2ccc(F)cc2)oc2cc3c(cc12)C(C)N(C(=O)OC)CCN3S(C)(=O)=O (stereo not drawn) [Compound B109]	10 to 100 nM	–	10 to 100 nM	–
CNC(=O)c1c(-c2ccc(F)cc2)oc2cc3c(cc12)C(C)N(C(=O)OCc1ccccc1)CCN3S(C)(=O)=O (stereo not drawn) [Compound B111]	10 to 100 nM	–	10 to 100 nM	–
[2H]C([2H])([2H])NC(=O)c1c(-c2ccc(F)cc2)oc2cc3c(cc12)CCCCN3S(C)(=O)=O [Compound B112]	10 to 100 nM	–	10 to 100 nM	–
[2H]C([2H])([2H])NC(=O)c1c(-c2ccc(F)cc2)oc2cc3c(cc12)CCCCCN3S(C)(=O)=O [Compound B113]	10 to 100 nM	–	10 to 100 nM	–
CNC(=O)c1c(-c2ccc(F)cc2)oc2cc3c(cc12)C(C)C(C)(C)CCN3S(C)(=O)=O (stereo not drawn) [Compound B115]	10 to 100 nM	–	10 to 100 nM	–
CNC(=O)c1c(-c2ccc(Oc3ccc(F)cc3)cc2)oc2cc3c(cc12)C(C)OCCN3S(C)(=O)=O (stereo not drawn) [Compound B116]	10 to 100 nM	–	10 to 100 nM	–
[2H]C([2H])([2H])NC(=O)c1c(-c2ccc(Oc3ccc(F)cc3)cc2)oc2cc3c(cc12)C(C)OCCN3S(C)(=O)=O (stereo not drawn) [Compound B119]	10 to 100 nM	–	10 to 100 nM	–
[2H]C([2H])([2H])NC(=O)c1c(-c2ccc(F)cc2)oc2cc3c(cc12)C(C)CCCN3S(C)(=O)=O (stereo not drawn) [Compound B121]	≤ 10 nM	–	< 10 nM	–
CCCN1CCN(S(C)(=O)=O)c2cc3oc(-c4ccc(F)cc4)c(C(=O)NC)c3cc2C1C (stereo not drawn) [Compound B137]	10 to 100 nM	–	10 to 100 nM	–
CNC(=O)c1c(-c2ccc(F)cc2)oc2cc3c(cc12)C(C)N(CC(=O)N(C)C)CCN3S(C)(=O)=O (stereo not drawn) [Compound B150]	10 to 100 nM	–	10 to 100 nM	–
CNC(=O)c1c(-c2ccc(Oc3ccc(F)cc3)cc2)oc2cc3c(cc12)C(C)N(C)CCN3S(C)(=O)=O (stereo not drawn) [Compound B151]	10 to 100 nM	–	10 to 100 nM	–
CNC(=O)c1c(-c2ccc(F)cc2)oc2cc3c(cc12)C(CF)OCCN3S(C)(=O)=O (stereo not drawn) [Compound B153]	10 to 100 nM	–	10 to 100 nM	–
CNC(=O)c1c(-c2ccc(F)cc2)oc2cc3c(cc12)C(C)N(CCCO)CCN3S(C)(=O)=O (stereo not drawn) [Compound B154]	10 to 100 nM	–	10 to 100 nM	–
CNC(=O)c1c(-c2ccc(F)cc2)oc2cc3c(cc12)C(C)N(CCc1ccc(F)cc1)CCN3S(C)(=O)=O (stereo not drawn) [Compound B155]	10 to 100 nM	–	10 to 100 nM	–
